A short description of this data set: method code SF-AS, from DOI: 10.1248/cpb.30.4175, PMID: 7165882.
For `CN(C)C(=O)OCc1ccc(F)cc1`, the logP is 2.3.

Regarding `CN(C)C(=O)OCc1ccc([N+](=O)[O-])cc1`, the logP came to 1.95.

In the case of `CN(C)C(=O)OCc1ccc(OCc2ccccc2)cc1`, the log partition coefficient (logP) came to 3.27.

The compound `CN(C)C(=O)OCc1cccc(Cl)c1` came in with a logP of 2.82.

Compound `COc1ccc(COC(=O)N(C)C)cc1` came in with a logP of 2.2.

Consider `CN(C)C(=O)OCc1ccc(Cl)cc1`, for which the log partition coefficient (logP) turned out to be 2.93.

Consider `CN(C)C(=O)OCc1ccccc1`, for which the logP is 2.16.

`Cc1ccc(COC(=O)N(C)C)cc1` returned a logP of 2.63.

The compound `CN(C)C(=O)OCc1ccc(C#N)cc1` had a lipophilicity (logP) of 1.67.

`CN(C)C(=O)OCc1ccc(Br)cc1` showed a logP of 3.01.

As for `CN(C)C(=O)OCc1ccc(I)cc1`, the logP came out at 3.32.

`COc1cccc(COC(=O)N(C)C)c1` gave a logP of 2.09.

Turning to `CN(C)C(=O)OCc1ccc(OC(=O)N(C)C)cc1`, the logP was determined as 1.59.

For the origin of these results see the SangsterLogP compilation.
